ChEMBL document CHEMBL5034010, “Novel Cephalosporin Conjugates Display Potent and Selective Inhibition of Imipenemase-Type Metallo-β-Lactamases” (J Med Chem, 2021)
Values after ≈ are worked out from the molar mass of the structure shown. Active and inactive are the calls of the source. The rule behind the calls is not given here.

Columns and labels:
Klebsiella pneumoniae [1] = assay: Inhibition of Metallo-beta-lactamase IMP-28 in Klebsiella pneumoniae clinical isolate assessed as MIC for meropenem antibacterial activity at 128 ug/ml (reference value: 2 ug/ml); conditions: dose 128.0 µg/ml
Escherichia coli [2] = assay: Inhibition of Metallo-beta-lactamase VIM-2 in Escherichia coli clinical isolate assessed as MIC for meropenem antibacterial activity at 128 ug/ml (reference value: 4 ug/ml); conditions: dose 128.0 µg/ml
Escherichia coli [3] = assay: Inhibition of Metallo-beta-lactamase VIM-2 in Escherichia coli clinical isolate assessed as fold reduction in meropenem MIC at 128 ug/ml; conditions: dose 128.0 µg/ml
Escherichia coli [4] = assay: Antibacterial activity against beta-lactamase VIM2 producing Escherichia coli clinical isolate measured upto 128 ug/ml; format: functional, organism-based
Escherichia coli [5] = assay: Inhibition of Metallo-beta-lactamase VIM-2 in Escherichia coli clinical isolate assessed as fold reduction in meropenem MIC at 64 ug/ml; conditions: dose 64.0 µg/ml
Klebsiella pneumoniae [6] = assay: Inhibition of Metallo-beta-lactamase IMP-28 in Klebsiella pneumoniae clinical isolate assessed as fold reduction in meropenem MIC at 32 ug/ml; conditions: dose 32.0 µg/ml
Enterobacter cloacae [7] = assay: Inhibition of Metallo-beta-lactamase IMP-1 in Enterobacter cloacae clinical isolate assessed as MIC for meropenem antibacterial activity at 32 ug/ml (Rvb =16 ug/ml); conditions: dose 32.0 µg/ml
Klebsiella pneumoniae [8] = assay: Inhibition of Metallo-beta-lactamase IMP-28 in Klebsiella pneumoniae clinical isolate assessed as fold reduction in meropenem MIC at 64 ug/ml; conditions: dose 64.0 µg/ml
Enterobacter cloacae [9] = assay: Inhibition of Metallo-beta-lactamase IMP-1 in Enterobacter cloacae clinical isolate assessed as fold reduction in meropenem MIC at 128 ug/ml; conditions: dose 128.0 µg/ml
Escherichia coli [10] = assay: Antibacterial activity against beta-lactamase NDM1 producing Escherichia coli clinical isolate measured upto 128 ug/ml; format: functional, organism-based
Escherichia coli [11] = assay: Inhibition of Metallo-beta-lactamase NDM-1 in Escherichia coli clinical isolate assessed as MIC for meropenem antibacterial activity at 32 ug/ml (reference value: 32 ug/ml); conditions: dose 32.0 µg/ml
Escherichia coli [12] = assay: Inhibition of Metallo-beta-lactamase NDM-1 in Escherichia coli clinical isolate assessed as fold reduction in meropenem MIC at 64 ug/ml; conditions: dose 64.0 µg/ml
Klebsiella pneumoniae [13] = assay: Substrate activity at Klebsiella pneumoniae beta-lactamase IMP-28 assessed as compound hydrolysis by measuring Kcat by Michaelis-Menten analysis
Klebsiella pneumoniae [14] = assay: Inhibition of Metallo-beta-lactamase IMP-28 in Klebsiella pneumoniae clinical isolate assessed as MIC for meropenem antibacterial activity at 64 ug/ml (reference value: 2 ug/ml); conditions: dose 64.0 µg/ml
Escherichia coli [15] = assay: Inhibition of Metallo-beta-lactamase VIM-2 in Escherichia coli clinical isolate assessed as MIC for meropenem antibacterial activity at 64 ug/ml (reference value: 4 ug/ml); conditions: dose 64.0 µg/ml
Klebsiella pneumoniae [16] = assay: Inhibition of Metallo-beta-lactamase IMP-28 in Klebsiella pneumoniae clinical isolate assessed as MIC for meropenem antibacterial activity at 32 ug/ml (reference value: 2 ug/ml); conditions: dose 32.0 µg/ml
[17] = Inhibition of Enterobacter cloacae IMP-1 using nitrocefin chromogenic substrate measured after 15 to 60 min at 25 degC by microplate reader
Klebsiella pneumoniae [18] = assay: Substrate activity at Klebsiella pneumoniae beta-lactamase IMP-28 assessed as compound hydrolysis by measuring Kcat/Km by Michaelis-Menten analysis
[19] = Inhibition of Klebsiella pneumoniae beta-lactamase IMP-28 using nitrocefin chromogenic substrate measured after 15 to 60 min at 25 degC by microplate reader
[20] = Inhibition of Escherichia coli beta-lactamase VIM-2 using nitrocefin chromogenic substrate measured after 15 to 60 min at 25 degC by microplate reader
Escherichia coli [21] = assay: Inhibition of Metallo-beta-lactamase NDM-1 in Escherichia coli clinical isolate assessed as fold reduction in meropenem MIC at 128 ug/ml; conditions: dose 128.0 µg/ml
Enterobacter cloacae [22] = assay: Inhibition of Metallo-beta-lactamase IMP-1 in Enterobacter cloacae clinical isolate assessed as fold reduction in meropenem MIC at 64 ug/ml; conditions: dose 64.0 µg/ml
Enterobacter cloacae [23] = assay: Inhibition of Metallo-beta-lactamase IMP-1 in Enterobacter cloacae clinical isolate assessed as MIC for meropenem antibacterial activity at 64 ug/ml (Rvb =16 ug/ml); conditions: dose 64.0 µg/ml
Enterobacter cloacae [24] = assay: Inhibition of Metallo-beta-lactamase IMP-1 in Enterobacter cloacae clinical isolate assessed as MIC for meropenem antibacterial activity at 128 ug/ml (Rvb =16 ug/ml); conditions: dose 128.0 µg/ml
Klebsiella pneumoniae [25] = assay: Antibacterial activity against beta-lactamase IMP-28 producing Klebsiella pneumoniae clinical isolate measured upto 128 ug/ml; format: functional, organism-based
Escherichia coli [26] = assay: Inhibition of Metallo-beta-lactamase NDM-1 in Escherichia coli clinical isolate assessed as fold reduction in meropenem MIC at 32 ug/ml; conditions: dose 32.0 µg/ml
Escherichia coli [27] = assay: Inhibition of Metallo-beta-lactamase NDM-1 in Escherichia coli clinical isolate assessed as MIC for meropenem antibacterial activity at 128 ug/ml (reference value: 32 ug/ml); conditions: dose 128.0 µg/ml
Escherichia coli [28] = assay: Inhibition of Metallo-beta-lactamase VIM-2 in Escherichia coli clinical isolate assessed as MIC for meropenem antibacterial activity at 32 ug/ml (reference value: 4 ug/ml); conditions: dose 32.0 µg/ml
Escherichia coli [29] = assay: Inhibition of Metallo-beta-lactamase VIM-2 in Escherichia coli clinical isolate assessed as fold reduction in meropenem MIC at 32 ug/ml; conditions: dose 32.0 µg/ml
Klebsiella pneumoniae [30] = assay: Substrate activity at Klebsiella pneumoniae beta-lactamase IMP-28 assessed as compound hydrolysis by measuring Km by Michaelis-Menten analysis
Escherichia coli [31] = assay: Inhibition of Metallo-beta-lactamase NDM-1 in Escherichia coli clinical isolate assessed as MIC for meropenem antibacterial activity at 64 ug/ml (reference value: 32 ug/ml); conditions: dose 64.0 µg/ml
Enterobacter cloacae [32] = assay: Inhibition of Metallo-beta-lactamase IMP-1 in Enterobacter cloacae clinical isolate assessed as fold reduction in meropenem MIC at 32 ug/ml; conditions: dose 32.0 µg/ml
Klebsiella pneumoniae [33] = assay: Inhibition of Metallo-beta-lactamase IMP-28 in Klebsiella pneumoniae clinical isolate assessed as fold reduction in meropenem MIC at 128 ug/ml; conditions: dose 128.0 µg/ml
Enterobacter cloacae [34] = assay: Antibacterial activity against beta-lactamase IMP1 producing Enterobacter cloacae clinical isolate measured upto 128 ug/ml; format: functional, organism-based
Enterobacter cloacae [35] = assay: Inhibition of Metallo-beta-lactamase IMP-1 in Enterobacter cloacae clinical isolate assessed as MIC for meropenem antibacterial activity at 64 ug/ml (reference value: 32 ug/ml); conditions: dose 64.0 µg/ml
Enterobacter cloacae [36] = assay: Inhibition of Metallo-beta-lactamase IMP-1 in Enterobacter cloacae clinical isolate assessed as MIC for meropenem antibacterial activity at 32 ug/ml (reference value: 32 ug/ml); conditions: dose 32.0 µg/ml
Enterobacter cloacae [37] = assay: Inhibition of Metallo-beta-lactamase IMP-1 in Enterobacter cloacae clinical isolate assessed as MIC for meropenem antibacterial activity at 128 ug/ml (reference value: 32 ug/ml); conditions: dose 128.0 µg/ml
[38] = Inhibition of Escherichia coli beta-lactamase NDM-1 using nitrocefin chromogenic substrate measured after 15 to 60 min at 25 degC by microplate reader

Structure (SMILES)	MIC (Klebsiella pneumoniae [1]) [µg/mL]	MIC (Escherichia coli [2]) [µg/mL]	fold change (FC) (Escherichia coli [3])	fold change (FC) (Escherichia coli [5])	fold change (FC) (Klebsiella pneumoniae [6])	fold change (FC) (Klebsiella pneumoniae [8])	fold change (FC) (Enterobacter cloacae [9])	MIC (Escherichia coli [11]) [µg/mL]	fold change (FC) (Escherichia coli [12])	MIC (Klebsiella pneumoniae [14]) [µg/mL]	MIC (Escherichia coli [15]) [µg/mL]	MIC (Klebsiella pneumoniae [16]) [µg/mL]	IC50 [20] [µM]	fold change (FC) (Escherichia coli [21])	fold change (FC) (Enterobacter cloacae [22])	fold change (FC) (Escherichia coli [26])	MIC (Escherichia coli [27]) [µg/mL]	MIC (Escherichia coli [28]) [µg/mL]	fold change (FC) (Escherichia coli [29])	MIC (Escherichia coli [31]) [µg/mL]	further results
CC1=C(C(=O)O)N2C(=O)[C@@H](NC(=O)Cc3ccccc3)[C@H]2SC1	0.25 (≈ 0.752 µM)	1 (≈ 3.01 µM)	4	2	2	4	1	16 (≈ 48.1 µM)	2	0.5 (≈ 1.5 µM)	2 (≈ 6.02 µM)	1 (≈ 3.01 µM)	57	2	1	2	16 (≈ 48.1 µM)	2 (≈ 6.02 µM)	2	16 (≈ 48.1 µM)	Activity (Escherichia coli [4]): inactive; MIC (Enterobacter cloacae [7]): 16 µg/mL (≈ 48.1 µM); Activity (Escherichia coli [10]): inactive; kcat (Klebsiella pneumoniae [13]): 23.3 s⁻¹; IC50 [17]: > 100 µM; kcat/Km (Klebsiella pneumoniae [18]): 59000 M⁻¹ s⁻¹; IC50 [19]: > 100 µM; MIC (Enterobacter cloacae [23]): 16 µg/mL (≈ 48.1 µM); MIC (Enterobacter cloacae [24]): 16 µg/mL (≈ 48.1 µM); Activity (Klebsiella pneumoniae [25]): inactive; Km (Klebsiella pneumoniae [30]): 392 µM; fold change (FC) (Enterobacter cloacae [32]): 1; fold change (FC) (Klebsiella pneumoniae [33]): 8; Activity (Enterobacter cloacae [34]): inactive
O=C(O)c1cccc(C(=O)O)n1 [DIPICOLINIC ACID]	< 0.031	< 0.063	> 64	> 64	16	> 64	128	0.5 (≈ 2.99 µM)	64	< 0.031	< 0.063	0.125 (≈ 0.748 µM)	10	> 64	32	64	< 0.5	< 0.063	> 64	0.5 (≈ 2.99 µM)	MIC (Enterobacter cloacae [35]): 1 µg/mL (≈ 5.98 µM); MIC (Enterobacter cloacae [36]): 16 µg/mL (≈ 95.7 µM); MIC (Enterobacter cloacae [37]): 0.25 µg/mL (≈ 1.5 µM); IC50 [38]: 10 µM; fold change (FC) (Enterobacter cloacae [32]): 2; fold change (FC) (Klebsiella pneumoniae [33]): > 64
O=C(Cc1ccccc1)N[C@@H]1C(=O)N2C(C(=O)O)=C(CSCc3ccccc3)CS[C@H]12	0.25 (≈ 0.55 µM)	1 (≈ 2.2 µM)	4	2	4	8	8	16 (≈ 35.2 µM)	2	0.25 (≈ 0.55 µM)	2 (≈ 4.4 µM)	0.5 (≈ 1.1 µM)	73	2	4	2	16 (≈ 35.2 µM)	2 (≈ 4.4 µM)	2	16 (≈ 35.2 µM)	MIC (Enterobacter cloacae [35]): 8 µg/mL (≈ 17.6 µM); Activity (Escherichia coli [4]): inactive; MIC (Enterobacter cloacae [36]): 8 µg/mL (≈ 17.6 µM); MIC (Enterobacter cloacae [37]): 4 µg/mL (≈ 8.8 µM); Activity (Escherichia coli [10]): inactive; kcat (Klebsiella pneumoniae [13]): 10.8 s⁻¹; IC50 [17]: 43 µM; kcat/Km (Klebsiella pneumoniae [18]): 529000 M⁻¹ s⁻¹; IC50 [19]: 45 µM; Activity (Klebsiella pneumoniae [25]): inactive; Km (Klebsiella pneumoniae [30]): 20.5 µM; fold change (FC) (Enterobacter cloacae [32]): 4; fold change (FC) (Klebsiella pneumoniae [33]): 8; Activity (Enterobacter cloacae [34]): inactive
